Laboratory results published in PMC4109893 (MedChemComm, 2014).
Read-outs that look alike come from different tables or passages of the source. Blank lines part the entries; values can stand above or below the compound they belong to.

System: mammalian GPAT
Test: GPAT inhibition in vitro
Format: biochemical
Conditions: for fold decrease in inhibition compared to corresponding linker-free analog: 15a vs 13d, 18b vs 12h; for fold increase in inhibitory activity compared to 1c: relative to 1c; for IC50: read-out: IC50 (µM) ± SD

Structure (SMILES): CCCCCCCCS(=O)(=O)Nc1cc(CCc2ccc(OC)cc2)ccc1C(=O)O [Compound 18b]
- fold decrease in inhibition compared to corresponding linker-free analog: 3.2 fold

Structure (SMILES): CCCCCCCCS(=O)(=O)Nc1ccc(-c2ccc(CCCC)cc2)cc1C(=O)O [Compound 13d]
- fold increase in inhibitory activity compared to 1c: 2.9 fold

Structure (SMILES): CCCCCCCCS(=O)(=O)Nc1ccc(-c2cccc(Cl)c2)cc1C(=O)O [Compound 13b]
- fold increase in inhibitory activity compared to 1c: 2.9 fold

- IC50 (GPAT inhibition by 5-substituted derivatives (Table 2)): 14.4 ± 1.3 µM
Structure (SMILES): CCCCCCCCS(=O)(=O)Nc1ccc(-c2ccccc2Cl)cc1C(=O)O [Compound 13a]

Structure (SMILES): CCCCCCCCS(=O)(=O)Nc1cc(C(=O)c2ccc(-c3ccccc3)cc2)ccc1C(=O)O [Compound 14b, 4-([1,1'-biphenyl]-4-carbonyl)-2-(octanesulfonamido)benzoic acid]
- fold increase in inhibitory activity compared to 1c: 3 fold
- fold more potent inhibition compared to linker-free analog 13f (relative to 13f): 2 fold

Structure (SMILES): CCCCCCCCS(=O)(=O)Nc1ccc(C(=O)c2ccc(CCCC)cc2)cc1C(=O)O [Compound 15a]
- fold decrease in inhibition compared to corresponding linker-free analog: 3.5 fold

Structure (SMILES): CCCCCCCCS(=O)(=O)Nc1ccc(-c2ccccc2-c2ccccc2)cc1C(=O)O [Compound 13e]
- fold increase in inhibitory activity compared to 1c: 2.5 fold

Structure (SMILES): CCCCCCCCS(=O)(=O)Nc1ccccc1C(=O)O [Compound 1c, 2-(octanesulfonamido)benzoic acid]
- inhibitory activity against GPAT (in words) (in vitro): comparable to 1b

- IC50 (GPAT inhibition by 4-substituted derivatives (Table 1)): 63.1 ± 5.5 µM
Structure (SMILES): CCCCCCCCS(=O)(=O)Nc1cc(-c2ccccc2O)ccc1C(=O)O [Compound 12k]
